Assay results published in patent publication US20190216815A1, “COMBINATION THERAPY COMPRISING A POLYUNSATURATED KETONE AND A FOLIC ACID PARTNER” (Avexxin AS, priority 2016, published 2019).

Legend:
Assay type in all cases: cell-based
[1] = test system: LPS-induced production of TNF in PBMC; test: LPS-induced TNF production in PBMC (ELISA); conditions: 1 μM MTX alone, 72 hours, 10 ng/mL LPS
Method: (§1) Blood was recruited from healthy donors at St. Olays Hospital HF, the Bloodbank. Peripheral blood mononuclear cells (PBMC) were isolated using SepMate™ separation tubes with LymphoPrep density gradient medium according to the STEMCELL Technology recommendations. For experiments, 1×10^6 cells/well/1 mL RPMI medium supplemented with 5% FBS, 0.3 mg/ml glutamine and 0.1 mg/ml gentamicin with or without inhibitors Compound A1, methotrexate hydrate (MTX) (Sigma-Aldrich, #A6770) or a combination of the two inhibitors, prior to the addition of lipopolysaccharides as a potent inducer of inflammation (LPS from E. coli 026:B6 γ-irradiated, Sigma-Aldrich, #L2654). Following treatment (72 hrs., 37° C., 5% CO2), the cell suspensions were centrifuged to isolate the supernatant from the cell fraction. Samples were stored at −80° C. until analysis.
(§2) Cell supernatant samples were analyzed by enzyme-linked immunosorbent assay (EIA) for PGE2 (Cayman #514010), TNF and IL1-β (RnD Systems, DuoSet #DY210 and #DY201) according to the manufacturers protocols. Cell supernatants were assayed at dilutions 1:1 for TNF; 1:10 for IL1-β and 1:100 for PGE2, except supernatants from untreated PBMC (negative control) that were assayed undiluted in all assays. Supernatants were hybridized over-night incubation, enzymatic conversion of substrate were read at OD420 nm. […]

[2] = test system: LPS-induced IL-1b levels in PBMC; test: LPS-induced IL-1β production in PBMC (ELISA); conditions: 1 μM MTX alone, 72 hours, 10 ng/mL LPS
Method: as §1, §2

HaCaT cells = test: Resazurin assay, HaCaT keratinocyte proliferation and viability; conditions: Homo sapiens, 10 μM MTX alone, 24 hours of treatment, read-out: reduction of proliferation and viability of HaCaT cells
Method: The spontaneously immortalized, nontumorigenic skin keratinocyte cell line HaCaT was maintained in DMEM supplemented with 5% (v/v) FBS, 0.3 mg/ml glutamine and 0.1 mg/ml gentamicin at 37° C. with 5% CO2 in a humidified atmosphere. Subculture using trypsin-EDTA was performed every 3-4 days with split ratio of 1:3-1:4 to ensure actively proliferating cells. Cells were seeded in 96 well plates in fully supplemented medium at a density of 2500 cells per well. Following 72 hours of cultivation, the cells were starved of serum in 0.25% FBS/DMEM overnight to halt proliferation, synchronize and to increase cell sensitivity to treatment. On day 4, the cells were treated with cPLA2α inhibitor Compound A1 and folic acid analogue methotrexate hydrate (MTX) (Sigma Aldrich #A6770) and left to incubate for […] in incubator at 37° C. with 5% CO2 in a humidified atmosphere before fluorescence was read at 544 nm excitation and 590 nm emission wavelength. The cells were observed under the microscope to evaluate possible morphology changes and signs of stress before addition of resazurin. The experiments were performed in series of 8 wells per treatment and repeated 2-3 times.

Compound: CN(Cc1cnc2nc(N)nc(N)c2n1)c1ccc(C(=O)N[C@@H](CCC(=O)O)C(=O)O)cc1 [MTX, methotrexate hydrate]
- reduction of LPS-induced TNF levels [1]: ~20%
- reduction of LPS-induced IL-1b levels [2]: ~20%
- cytotoxicity at 10 µM (HaCaT cells): ~15%
